Test results published in patent US4977141A, “Peptidyl α-aminoacyl aminodiol carbamates as anti-hypertensive agents” (G. D. Searle & Co., priority 1987, dated 1990).
One block for each molecule: values may come before it. Square brackets hold non-standard residues; d marks the D form. Peptide text beside a SMILES is read from it. * marks the point of attachment. Sta = CC(C)C[C@H](N)[C@@H](O)CC(=O)O; Isovaleryl = CC(C)CC(=O)*

What was measured:
[1] = biological target: T1, hog renin (Sus scrofa, UniProt A0A287APG1); assay: hog renin inhibition assay; format: biochemical; settings: pH 7.4, 37° C., one hour, synthetic tetradecapeptide substrate
T1 construct: purchased Sigma Chemical Co
Method: The hog renin inhibition assay was conducted in a manner similar to the human resin assay, with the following modification: Hog renin was purchased from Sigma Chemical Co. and the synthetic tetradecapeptide substrate was obtained from peninsula Labs Inc. In a final volume of 0.25 mL 100 mM Tris-acetate buffer at pH 7.4, 0.125 m units hog renin, 20 micromolar tetradecapeptide, 6 mM disodium EDTA, 3.2 mM phenylmethyl sulfonyl fluoride, 3 mM 8-hydroxyquinoline, 1.2 mg/mL BSA and 0.024 mg/mL neomycin sulfate were incubated for one hour at 37° C. in the presence or absence of renin inhibitors. The amount of angiotensin I produced was determined as for the human renin inhibition assay.

[2] = tested on: plasma renin activity (PRA); assay: plasma renin activity (PRA) reduction in Rhesus monkeys, intravenous; settings: Macaca mulatta, 0.25 h, furosemide pre-treated Rhesus monkeys, dose reducing PRA to 50% of pretreatment control, read-out: Rhesus (in vivo) PRA Reduction ED50
Method: The effect of inhibitor on plasma renin activity (PRA) in Rhesus monkeys was determined as follows: Rhesus monkeys were pre-treated with furosemide (0.2 mg/kg; i.m.) followed by another equal does 6 hours later. Then, 24 hours after the first treatment, the animals were chaired and blood samples collected for pre-treatment controls; immediately thereafter dosing with drug was started. The compounds were administered intravenously every 30 min and blood samples were collected 15 min after each administration. PRA was determined by the method of Sealey and Laragh Cardiovascular Med. 2, 1079-1092 (1977), and the concentration of angiotensin I produced was determined by radioimmunoassay.

[3] = biological target: T2, human renin (Homo sapiens, UniProt P00797); assay: human renin inhibition in vitro assay; format: biochemical; settings: pH 7.4, 37° C., two hours, human plasma substrate
T2 construct: purchased National Institute for Biological Standards, London
T2 sequence (P00797 67-406): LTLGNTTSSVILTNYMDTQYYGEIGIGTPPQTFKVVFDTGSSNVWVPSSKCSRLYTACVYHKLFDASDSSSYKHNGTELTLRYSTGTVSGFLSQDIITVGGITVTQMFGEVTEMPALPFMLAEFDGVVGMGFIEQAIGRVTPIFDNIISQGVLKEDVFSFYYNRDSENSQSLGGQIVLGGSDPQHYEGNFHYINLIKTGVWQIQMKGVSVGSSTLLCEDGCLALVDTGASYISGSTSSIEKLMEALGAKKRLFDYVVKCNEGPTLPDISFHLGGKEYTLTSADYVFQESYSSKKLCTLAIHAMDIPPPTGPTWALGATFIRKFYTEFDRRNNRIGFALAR
Method: Compounds of Formula I were evaluated as inhibitors of human renin in an in vitro assay, as follows: This human renin inhibition test has been previously described in detail [Papaioannou, et. al., Clinical and Experimental Hypertension, A7(9), 1243-1257 (1985)]. Human renin was obtained from the National Institute for Biological Standards, London. In a total volume of 0.25 mL 100 mM Tris-acetate buffer at PH 7.4, 25×10^-6 Goldblatt units of renin, 0.05 mL of plasma from human volunteers taking oral contraceptives, 6.0 mM sodium EDTA, 2.4 mM phenylmethyl sulfonyl fluoride, 1.5 mM 8-hydroxyquinoline, 0.4 mg/mL BSA, and 0.024 mg/mL neomycin sulfate were incubated for two hours at 37° C. in the presence or absence of renin inhibitors. The produced angiotensin I was determined by radioimmunoassay (New England Nuclear kit). Dipeptide glycols to be assayed were solubilized in either ethyl alcohol or DMSO and diluted with 100 mM Tris-acetate buffer at pH 7.4 to the appropriate concentration. The final concentration of organic solvent in the reaction mixture was less than 1%. Control incubations at 37° C. were used to correct for effects of organic solvent on renin activity.

[4] = tested on: Plasma Renin Activity; assay: Plasma Renin Activity of Sodium-Depleted Marmoset, oral activity; format: in vivo, Common marmosets (Callithrix jacchus); settings: 20 mg/kg IG
Method: The oral activity of compounds of Formula I was determined in vivo in Marmoset monkeys in accordance with the following procedure: Common marmosets (Callithrix jacchus, Charles River) were placed on a modified high protein low sodium diet (Purina, St. Louis, Mo.) for 1 to 2 weeks. On the day of the test an animal was anesthetized with isoflurane and cannulated in the femoral artery and vein for blood pressure monitoring, intravenous saralasin infusion and blood sampling. After allowing the animal to recover from surgery for 2 hr, saralasin was infused at 1 microgram/min for 15 minutes to confirm that the animal's blood pressure was dependent on angiotensin II levels. The marmoset was allowed to stabilize for 30 min after the saralasin infusion. The test compound was administered orally and blood pressure was monitored for 2 hr. Blood samples were taken in K-EDTA for plasma renin activity before, 30 min, and 1 hr after compound administration.

[5] = tested on: blood pressure; settings: after the injection of hog renin into nephrectomized rats; cited from earlier work
[6] = tested on: aspartyl proteases such as pepsin, cathepsin D and renin; settings: cited from earlier work

T1 sequence (A0A287APG1 24-407): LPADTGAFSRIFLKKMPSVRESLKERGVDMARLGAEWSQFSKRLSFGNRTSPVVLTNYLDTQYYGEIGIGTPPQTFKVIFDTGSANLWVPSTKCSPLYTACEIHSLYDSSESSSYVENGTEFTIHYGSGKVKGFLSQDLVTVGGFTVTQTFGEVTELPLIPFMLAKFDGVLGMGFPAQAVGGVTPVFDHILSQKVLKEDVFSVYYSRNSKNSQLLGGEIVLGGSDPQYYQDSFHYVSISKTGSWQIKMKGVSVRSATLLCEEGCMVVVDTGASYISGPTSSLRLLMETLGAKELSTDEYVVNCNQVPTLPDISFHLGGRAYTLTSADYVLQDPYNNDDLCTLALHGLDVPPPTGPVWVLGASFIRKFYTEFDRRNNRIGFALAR

IC50 [1]: 7200 nM
IC50 [3]: 490 nM
SMILES: CC(C)C[C@H](NC(=O)[C@H](Cc1ccccc1)OC(=O)N1CCOCC1)C(=O)N[C@@H](CC1CCCCC1)[C@@H](O)CO [Example 11, O-(N-morpholinocarbonyl)-3-L-phenyllactyl-L-leucinamide of (2S, 3R)-2-amino-1-cyclohexyl-3,4-dihydroxybutane]
ED50 [2]: 1.6 mg/kg
Plasma Renin Activity ([4]; 30 min, Animal No. 205): 0.6 ng AI/ml/hr
Plasma Renin Activity ([4]; 30 min, Animal No. 209): 1.1 ng AI/ml/hr
Plasma Renin Activity ([4]; 30 min, Animal No. 221): 48.5 ng AI/ml/hr
Plasma Renin Activity ([4]; 60 min, Animal No. 205): 4.5 ng AI/ml/hr
Plasma Renin Activity ([4]; 60 min, Animal No. 209): 0.0 ng AI/ml/hr
Plasma Renin Activity ([4]; 60 min, Animal No. 221): 24.9 ng AI/ml/hr
Plasma Renin Activity ([4]; Pretreatment, Animal No. 205): 17.5 ng AI/ml/hr
Plasma Renin Activity ([4]; Pretreatment, Animal No. 209): 39.3 ng AI/ml/hr
Plasma Renin Activity ([4]; Pretreatment, Animal No. 221): 37.6 ng AI/ml/hr

IC50 [1]: 160 nM
IC50 [3]: 70 nM
SMILES: CC(C)C[C@H](NC(=O)[C@H](Cc1ccccc1)OC(=O)N1CCOCC1)C(=O)N[C@@H](CC1CCCCC1)[C@@H](O)[C@@H](O)CC(C)C [Example 6, O-(N-morpholinocarbonyl)-3-L-phenyllactyl-L-leucinamide of (2S,3R,4S)-2-amino-1-cyclohexyl-3,4-dihydroxy-6-methylheptane]
ED50 [2]: 0.012 mg/kg
Plasma Renin Activity ([4]; 30 min, Animal No. 206): 2.2 ng AI/ml/hr
Plasma Renin Activity ([4]; 30 min, Animal No. 207): 0.2 ng AI/ml/hr
Plasma Renin Activity ([4]; 30 min, Animal No. 208): 1.0 ng AI/ml/hr
Plasma Renin Activity ([4]; 60 min, Animal No. 206): 0.6 ng AI/ml/hr
Plasma Renin Activity ([4]; 60 min, Animal No. 207): 0.9 ng AI/ml/hr
Plasma Renin Activity ([4]; 60 min, Animal No. 208): 2.0 ng AI/ml/hr
Plasma Renin Activity ([4]; Pretreatment, Animal No. 206): 16.3 ng AI/ml/hr
Plasma Renin Activity ([4]; Pretreatment, Animal No. 207): 16.4 ng AI/ml/hr
Plasma Renin Activity ([4]; Pretreatment, Animal No. 208): 15.7 ng AI/ml/hr

IC50 [1]: 6600 nM
IC50 [3]: 100 nM
SMILES: CC(C)C[C@H](NC(=O)[C@H](Cc1ccccc1)OC(=O)N1CCOCC1)C(=O)N[C@@H](CC1CCCCC1)[C@@H](O)[C@H](C)O [Example 9, O-(N-morpholinocarbonyl)-3-L-phenyllactyl-L-leucinamide of (2S,3R,4S)-2-amino-1-cyclohexyl-3,4-dihydroxypentane]

SMILES: CC(C)CC(=O)N[C@H](C(=O)N[C@H](C(=O)N[C@@H](CC(C)C)[C@@H](O)CC(=O)N[C@@H](C)C(=O)N[C@@H](CC(C)C)[C@@H](O)CC(=O)O)C(C)C)C(C)C [pepstatin] (Isovaleryl-VV[Sta]A[Sta]-OH)
blood pressure reduction in vivo [5]: reduce blood pressure in vivo
inhibition of aspartyl proteases [6]: inhibitor of aspartyl proteases
